The values below come from patent US20250326771A1, “PIPERAZINE DERIVATIVES USEFUL IN HIV THERAPY” (VIIV HEALTHCARE COMPANY, priority 2022, published 2025).

In test [1] the test system is Jurkat HIV-luciferase clones. Briefly: Jurkat latency reversal assay. It counts as cell-based. Conditions: Homo sapiens, 48 h; Jurkat latency reversal assay potency; read-out: Jurkat pEC50 (converted). As to the method: Jurkat HIV-luciferase clones were maintained in RPMI medium 1640 (Gibco by Life Technologies) containing 10% (vol/vol) fetal bovine serum (SAFC/Sigma-Aldrich) and 25 units/mL penicillin, 25 units/mL streptomycin (Gibco by Life Technologies), and were split 1:4 every 3 to 4 days to maintain a cell density of ˜0.3 to 1 million cells/mL. The Jurkat clones were maintained with the addition of 500 nM EFV in the medium. Three Jurkat cell clones (C16, 115, and N6), each harboring one or two integrated HIV proviruses expressing the luciferase reporter gene, were added at equal amounts for a total of 5,000 cells per well to 384-well plates containing compound titrations. Dose-response testing was performed on compounds dissolved in dimethyl sulfoxide (DMSO; Fisher Scientific, Merelbeke, Belgium) dispensed in duplicate serial 3-fold, 14-point titrations using a D300e Digital Droplet Dispenser (Hewlett-Packard) to give final assay concentrations of 10 μM to […] in 50 μL of medium at 0.5% DMSO (vol/vol) final concentration. Cells and compound were incubated at 37° C. for 48 hours, unless otherwise indicated, followed by the addition of 20 μL of Steady-Glo® Luciferase (Promega). Luminescence resulting from the induction of the virally expressed luciferase was measured using an EnVision 2102 Multilabel Plate Reader (Perkin Elmer). Dose-response relationships were analyzed with GraphPad PRISM 6 using a four-parameter logistic regression model to calculate the concentration of compound that gives half-maximal response (EC50) and the maximal percent activation compared to the vehicle control.

For a further test, the target named is cIAP1-BIR3 (Homo sapiens (Human), UniProt Q13490). Briefly: BIR binding assay (FRET competition), cIAP1 BIR3. Conditions: for cIAP1 BIR3 vs BIR2 separation window: fold separation (FS) for cIAP1. Here is the method:
(§1) The BIR domain binding assays are FRET based competition assays that utilize His-tagged versions of each of the BIR2 and BIR3 domains from cIAP1, cIAP2, and XIAP (each domain assayed separately) each at a custom optimal concentration and a probe, 200 nM SMAC/DIABLO peptide […] labelled with AlexaFluor647 (part #crb 1110326h, Discovery Peptides). The assay is conducted in 50 mM HEPES, […], 1 mM CHAPS, 5% Glycerol, 1 mM DTT, in dI water with a final pH of 7.4 and final volume of 20 uL. Final protein domain concentrations are: 50 nM cIAP1-BIR3 (Part #APT-11-370 Reaction Biology), 100 nM XIAP-BIR3 (Part #APT-11-351 Reaction Biology), 200 nM XIAP-BIR2 (Part #APT-11-470 Reaction Biology), 325 nM cIAP2-BIR2 (Part #APT-11-489 Reaction Biology), 50 nM cIAP2-BIR3 (Part #APT-11-372 Reaction Biology), 325 nM cIAP1-BIR2 (Part #APT-11-487 Reaction Biology). Compounds were plated using a HP Tecan D300 printer in a final total volume of 202 nl and DMSO concentration normalized across the 15-point, 3-fold dilution series. Peptide and probe were prepared at 2× relative to the concentrations above in binding buffer, 10 uL added to the prepared compound plates, and incubated for 60 minutes. LANCE Eu-W1024 (part #AD0401 Perkin Elmer #, vendor) was prepared at 2× concentration in binding buffer for final concentration of 2 nM, 10 uL added to each well, and plates incubated for 30 minutes. Plates were read on an ENVISION multifunction plate reader with […] laser excitation to obtain the 615 nm/665 nm emission ratio as indicative of probe:protein proximity. Data was analyzed using GraphPad PRISM and curves fit using log(inhibitor) vs. response—Variable slope (four […] method to obtain IC50 and pIC50 values.

A further test concerns the target cIAP1-BIR2 (Homo sapiens (Human), UniProt Q13490). Briefly: BIR binding assay (FRET competition), cIAP1 BIR2. As to the method: as §1
For a further test, the target named is cIAP2-BIR3 (Homo sapiens (Human), UniProt Q13489). Nature of the test: BIR binding assay (FRET competition), cIAP2 BIR3. Conditions: for cIAP2 BIR3 vs BIR2 separation window: fold separation (FS) for cIAP2. As to the method: as §1
A further test concerns the target cIAP2-BIR2 (Homo sapiens (Human), UniProt Q13489). Briefly: BIR binding assay (FRET competition), cIAP2 BIR2. Here is the method: as §1
For another test, the target named is XIAP-BIR3 (Homo sapiens (Human), UniProt P98170). Briefly: BIR binding assay (FRET competition), XIAP BIR3. As to the method:
as §1

cIAP2-BIR3, sequence (Q13489 238-349): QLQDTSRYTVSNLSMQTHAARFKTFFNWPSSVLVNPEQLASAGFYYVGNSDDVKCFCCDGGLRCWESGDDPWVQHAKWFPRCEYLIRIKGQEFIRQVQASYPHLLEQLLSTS
cIAP1-BIR2, sequence (Q13490 173-257): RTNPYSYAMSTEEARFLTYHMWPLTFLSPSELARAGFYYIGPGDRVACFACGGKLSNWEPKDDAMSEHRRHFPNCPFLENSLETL
cIAP2-BIR2, sequence (Q13489 158-242): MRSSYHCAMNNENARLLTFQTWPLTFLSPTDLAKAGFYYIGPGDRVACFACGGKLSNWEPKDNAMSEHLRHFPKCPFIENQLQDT
XIAP-BIR3, sequence (P98170 241-356): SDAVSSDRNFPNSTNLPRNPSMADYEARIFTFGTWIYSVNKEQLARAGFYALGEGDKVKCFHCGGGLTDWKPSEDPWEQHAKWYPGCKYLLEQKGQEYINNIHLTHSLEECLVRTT
cIAP1-BIR3, sequence (Q13490 253-363): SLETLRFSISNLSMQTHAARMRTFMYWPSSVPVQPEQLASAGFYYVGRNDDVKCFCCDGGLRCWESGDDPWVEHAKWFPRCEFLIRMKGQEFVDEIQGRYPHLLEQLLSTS

Broadly, the IC50 is the concentration that inhibits the measured activity by half. On to `C[C@@H]1CN(CC(=O)N2CC(C)(C)c3[nH]c(=O)c(Cc4ccc(Cl)cc4Cl)cc32)[C@@H](CN2CCO[C@H](C(=O)NCc3ccc(CNC(=O)[C@@H]4CN(C[C@H]5CN[C@H](C)CN5CC(=O)N5CC(C)(C)c6[nH]c(=O)c(Cc7ccc(Cl)cc7Cl)cc65)CCO4)cc3)C2)CN1` [Compound 165, (2S,2′S)-N,N′-(1,4-phenylenebis(methylene)) bis(4-(((2R,5R)-1-(2-(6-(2,4-dichlorobenzyl)-3,3-dimethyl-5-oxo-2,3,4,5-tetrahydro-1H-pyrrolo[3,2-b]pyridin-1-yl)-2-oxoethyl)-5-methylpiperazin-2-yl)methyl)morpholine-2-carboxamide)], for which the EC50 in test [1] was 12.6 to 63.1 nM. The half-inhibitory concentration (IC50) on cIAP1-BIR3 lay within 7.94 to 15.8 nM; at cIAP1-BIR2, 1000 to 3160 nM; on cIAP2-BIR3, 1.38 to 7.94 nM; at cIAP2-BIR2 it was 3160 to 10000 nM; at XIAP-BIR3 it was 31.6 to 501 nM. The “cIAP1 BIR3 vs BIR2 separation window” value at cIAP1-BIR3 is “+++ (10,000>FS>1,000)”. Besides, the “cIAP2 BIR3 vs BIR2 separation window” value at cIAP2-BIR3 is reported as “+++ (10,000>FS>1,000)”.
In the case of `C[C@@H]1CN(CC(=O)N2CC(C)(C)c3ncc(Cc4ccc(F)cc4)cc32)[C@@H](CN2CCN(S(=O)(=O)c3cccc(S(=O)(=O)N4CCN(C[C@H]5CN[C@H](C)CN5CC(=O)N5CC(C)(C)c6ncc(Cc7ccc(F)cc7)cc65)[C@H](C)C4)c3)C[C@H]2C)CN1` [Example 36, 2,2′-((3R,3′R,6R,6′R)-(((2R,2′R)-(1,3-phenylenedisulfonyl)bis(2-methylpiperazine-4,1-diyl))bis(methylene))bis(3-methylpiperazine-6,1-diyl))bis(1-(6-(4-fluorobenzyl)-3,3-dimethyl-2,3-dihydro-1H-pyrrolo[3,2-b]pyridin-1-yl)ethan-1-one)], the EC50 in test [1] is 0.49 to 12.6 nM. Moreover, the concentration for half-maximal inhibition (IC50) on cIAP1-BIR3 was 15.8 to 31.6 nM; at cIAP1-BIR2 it was 3160 to 10000 nM; at cIAP2-BIR3, 15.8 to 31.6 nM; on XIAP-BIR3, 31.6 to 501 nM. Moreover, the “cIAP1 BIR3 vs BIR2 separation window” value on cIAP1-BIR3 was “+++ (10,000>FS>1,000)”.
Regarding `C[C@@H]1CN(CC(=O)N2CC(C)(C)c3[nH]c(=O)c(Cc4ccc(F)cc4)cc32)[C@@H](CN2CCC[C@@H](NC(=O)CCCCCCCCCCCCC(=O)N[C@@H]3CCCN(C[C@H]4CN[C@H](C)CN4CC(=O)N4CC(C)(C)c5[nH]c(=O)c(Cc6ccc(F)cc6)cc54)C3)C2)CN1` [Example 46, N1,N^14-bis((R)-1-(((2R,5R)-1-(2-(6-(4-fluorobenzyl)-3,3-dimethyl-5-oxo-2,3,4,5-tetrahydro-1H-pyrrolo[3,2-b]pyridin-1-yl)-2-oxoethyl)-5-methylpiperazin-2-yl)methyl)piperidin-3-yl)tetradecanediamide], the EC50 in test [1] is 63.1 to 316 nM. Further, the “cIAP1 BIR3 (pIC50)” value on cIAP1-BIR3 (FRET competition binding) is “++ (7.80>pIC50>=7.50)”. The “cIAP1 BIR3 vs BIR2 separation window” value at cIAP1-BIR3 is “+++ (10,000>FS>1,000)”. This molecule also yielded a half-inhibitory concentration (IC50) on cIAP1-BIR2 of 3160 to 10000 nM. The “cIAP2 BIR3 (pIC50)” value at cIAP2-BIR3 (FRET competition binding) is “++ (7.80>pIC50>=7.50)”. In addition, the “XIAP BIR3 (pIC50)” value on XIAP-BIR3 (FRET competition binding) is “+ (7.50>pIC50>=6.30)”.
With `C[C@@H]1CN(CC(=O)N2CC(C)(C)c3[nH]c(=O)c(Cc4ccc(F)cc4)cc32)[C@@H](CN2CCC(CCOc3cccc(OCCC4CCN(C[C@H]5CN[C@H](C)CN5CC(=O)N5CC(C)(C)c6[nH]c(=O)c(Cc7ccc(F)cc7)cc65)CC4)c3)CC2)CN1` [Example 108, 1,1′-(2,2′-((3R,3′R,6R,6′R)-((((1,3-phenylenebis(oxy))bis(ethane-2,1-diyl))bis(piperidine-4,1-diyl))bis(methylene))bis(3-methylpiperazine-6,1-diyl))bis(acetyl))bis(6-(4-fluorobenzyl)-3,3-dimethyl-1,2,3,4-tetrahydro-5H-pyrrolo[3,2-b]pyridin-5-one)], in test [1], the EC50 was 12.6 to 63.1 nM. For the same molecule, the 50% inhibitory concentration (IC50) is 15.8 to 31.6 nM on cIAP1-BIR3, 15.8 to 31.6 nM on cIAP2-BIR3, 10000 to 51300 nM at cIAP2-BIR2 and 31.6 to 501 nM on XIAP-BIR3.
As to `C[C@@H]1CN(CC(=O)N2CC(C)(C)c3ncc(Cc4ccc(C(F)(F)F)cc4)cc32)[C@@H](CN2CCO[C@H](COc3cccc(OC[C@@H]4CN(C[C@H]5CN[C@H](C)CN5CC(=O)N5CC(C)(C)c6ncc(Cc7ccc(C(F)(F)F)cc7)cc65)CCO4)c3)C2)CN1` [Compound 149], the EC50 in test [1] was 63.1 to 316 nM. Besides, the IC50 lay within 31.6 to 501 nM on cIAP1-BIR3, 10000 to 51300 nM on cIAP1-BIR2, 31.6 to 501 nM on cIAP2-BIR3 and 31.6 to 501 nM at XIAP-BIR3. In addition, the “cIAP1 BIR3 vs BIR2 separation window” value on cIAP1-BIR3 is “+++ (10,000>FS>1,000)”.
Regarding `C[C@@H]1CN(CC(=O)N2CC(C)(C)c3ncc(Cc4ccc(Br)cc4)cc32)[C@@H](CN2CCO[C@H](COc3cccc(OC[C@@H]4CN(C[C@H]5CN[C@H](C)CN5CC(=O)N5CC(C)(C)c6ncc(Cc7ccc(Br)cc7)cc65)CCO4)c3)C2)CN1` [Compound 153], in test [1], the EC50 is 63.1 to 316 nM. For the same molecule, the half-inhibitory concentration (IC50) on cIAP1-BIR3 fell in the range of 31.6 to 501 nM; at cIAP1-BIR2, 10000 to 51300 nM; at cIAP2-BIR3 it was 31.6 to 501 nM; at XIAP-BIR3, 31.6 to 501 nM. Moreover, the “cIAP1 BIR3 vs BIR2 separation window” value on cIAP1-BIR3 is recorded as “+++ (10,000>FS>1,000)”.
Consider `Cc1cc(Cl)ccc1Cc1cc2c([nH]c1=O)C(C)(C)CN2C(=O)CN1C[C@@H](C)NC[C@@H]1CN1CCO[C@H](C(=O)NCc2ccc(CNC(=O)[C@@H]3CN(C[C@H]4CN[C@H](C)CN4CC(=O)N4CC(C)(C)c5[nH]c(=O)c(Cc6ccc(Cl)cc6C)cc54)CCO3)cc2)C1` [Compound 168, (2S,2′S)-N,N′-(1,4-phenylenebis(methylene)) bis(4-(((2R,5R)-1-(2-(6-(4-chloro-2-methylbenzyl)-3,3-dimethyl-5-oxo-2,3,4,5-tetrahydro-1H-pyrrolo[3,2-b]pyridin-1-yl)-2-oxoethyl)-5-methylpiperazin-2-yl)methyl)morpholine-2-carboxamide)], for which the EC50 in test [1] was 0.49 to 12.6 nM. Besides, the concentration for half-maximal inhibition (IC50) is 15.8 to 31.6 nM at cIAP1-BIR3, 7.94 to 15.8 nM on cIAP2-BIR3, 22.4 to 1000 nM at cIAP2-BIR2 and 31.6 to 501 nM at XIAP-BIR3. For the same molecule, the “cIAP2 BIR3 vs BIR2 separation window” value on cIAP2-BIR3 is recorded as “++ (1,000>FS>100)”.
Consider `Cc1ccc(Cc2cnc3c(c2)N(C(=O)CN2C[C@@H](C)NC[C@@H]2CN2CCO[C@H](COc4cccc(OC[C@@H]5CN(C[C@H]6CN[C@H](C)CN6CC(=O)N6CC(C)(C)c7ncc(Cc8ccc(C)cc8)cc76)CCO5)c4)C2)CC3(C)C)cc1` [Compound 148], for which the EC50 in test [1] was 12.6 to 63.1 nM. In addition, the IC50 lay in the range of 15.8 to 31.6 nM on cIAP1-BIR3, 10000 to 51300 nM at cIAP1-BIR2, 15.8 to 31.6 nM on cIAP2-BIR3 and 31.6 to 501 nM at XIAP-BIR3. For the same molecule, on cIAP1-BIR3, the “cIAP1 BIR3 vs BIR2 separation window” value is reported as “++++ (FS>10,000)”.
On to `C[C@@H]1CN(CC(=O)N2CC(C)(C)c3ncc(Cc4ccc(Cl)cc4)cc32)[C@@H](CN2CCO[C@H](COc3cccc(OC[C@@H]4CN(C[C@H]5CN[C@H](C)CN5CC(=O)N5CC(C)(C)c6ncc(Cc7ccc(Cl)cc7)cc65)CCO4)c3)C2)CN1` [Compound 147], for which the EC50 in test [1] was 12.6 to 63.1 nM. In addition, the half-inhibitory concentration (IC50) on cIAP1-BIR3 lay within 15.8 to 31.6 nM; at cIAP1-BIR2, 3160 to 10000 nM; on cIAP2-BIR3 it was 15.8 to 31.6 nM; at XIAP-BIR3 it was 31.6 to 501 nM. In addition, the “cIAP1 BIR3 vs BIR2 separation window” value at cIAP1-BIR3 is “+++ (10,000>FS>1,000)”.
